Source: patent US20230085307A1, “PYRIDAZINONE COMPOUND AND HERBICIDE” (NISSAN CHEMICAL CORPORATION, priority 2019, published 2023)

What was measured:
barnyard grass [1] = assay: Test Example 3: herbicidal effect by foliage application, Wagner pot (Table 18, symbol H); assay type: in vivo, barnyard grass (Echinochloa crus-galli); details: 320 g/ha
Summary of the method: (§1)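 Plants were sown in alluvial soil held under 0.1–0.5 cm standing water and grown 14 days in a greenhouse at 25–30 °C. An emulsifiable formulation, water-diluted to the set dose, was then sprayed onto the foliage, and effects were scored three weeks later using previously defined criteria.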

Chinese sprangletop = assay: Test Example 3: herbicidal effect by foliage application, Wagner pot (Table 18, symbol D); assay type: in vivo, chinese sprangletop (Leptochloa chinensis); details: 320 g/ha
Protocol: [Test Example 3] Herbicidal Effect Test by Foliage Application After alluvial soil was placed into 1/10000 are of Wagner pot, water was poured and mixed to form a submerged condition having a water depth of 0.1 cm to 0.5 cm. Seeds of barnyard grass, Chinese sprangletop, rice flat sedge, and rice were sowed and the pot was placed in a greenhouse at 25° C. to 30° C. for growth of the plants. After 14-day growth of the plants, the emulsion agent of the compound of the present invention prepared according to Formulation Example 2 was diluted with water so as to achieve a predetermined herbicide amount, and the diluted emulsion agent was uniformly applied to a foliage part with a small-sized spray. Three weeks after the herbicide application, the effect of the herbicide on each plant was evaluated according to the criteria of Test Example 1.

rice flat sedge = assay: Test Example 3: herbicidal effect by foliage application, Wagner pot (Table 18, symbol E); assay type: in vivo, rice flat sedge (Cyperus iria); details: 320 g/ha
Summary of the method: as §1

southern crabgrass = assay: Test Example 5: herbicidal effect by foliage application, plastic box (Table 20, symbol F); assay type: in vivo, southern crabgrass (Digitaria ciliaris); details: foliage application, 320 g/ha, 3 weeks after application
Excerpt: (§2) [Test Example 5] Herbicidal Effect Test by Foliage Application
(§3) Sterilized diluvial soil was placed in a plastic box having a length of 21 cm, a width of 13 cm, and a depth of 7 cm. The seeds of each of southern crabgrass, green foxtail, barnyard grass, wild oat, blackgrass, Italian ryegrass, windgrass, velvetleaf, redroot pigweed, lambsquarters, chickweed, false cleavers, persian speedwell, corn, soybean, rice, wheat, beet, and rapeseed were sowed in a spot-like manner and covered with the soil having a thickness of about 1.5 cm. Thereafter, the plants were grown in a greenhouse at 25° C. to 30° C. After 14-day growth of the plants, the emulsion agent of the compound of the present invention prepared according to Formulation Example 2 was diluted with water so as to achieve a predetermined herbicide amount, and the diluted emulsion agent was uniformly applied to a foliage part with a small-sized spray. Three weeks after the herbicide application, the effect of the herbicide on each plant was evaluated according to the criteria of Test Example 1.

green foxtail = assay: Test Example 5: herbicidal effect by foliage application, plastic box (Table 20, symbol G); assay type: in vivo, green foxtail (Setaria viridis); details: foliage application, 320 g/ha, 3 weeks after application
Excerpt: as §2, §3

barnyard grass [2] = assay: Test Example 5: herbicidal effect by foliage application, plastic box (Table 20, symbol H); assay type: in vivo, barnyard grass (Echinochloa crus-galli); details: foliage application, 320 g/ha, 3 weeks after application
Excerpt: as §2, §3

wild oat = assay: Test Example 5: herbicidal effect by foliage application, plastic box (Table 20, symbol I); assay type: in vivo, wild oat (Avena fatua); details: foliage application, 320 g/ha, 3 weeks after application
Excerpt: as §2, §3

blackgrass = assay: Test Example 5: herbicidal effect by foliage application, plastic box (Table 20, symbol J); assay type: in vivo, blackgrass (Alopecurus myosuroides); details: foliage application, 320 g/ha, 3 weeks after application
Excerpt: as §2, §3

Italian ryegrass = assay: Test Example 5: herbicidal effect by foliage application, plastic box (Table 20, symbol K); assay type: in vivo, Italian ryegrass (Lolium multiflorum); details: foliage application, 320 g/ha, 3 weeks after application
Excerpt: as §2, §3

windgrass = assay: Test Example 5: herbicidal effect by foliage application, plastic box (Table 20, symbol L); assay type: in vivo, windgrass (Apera spica-venti); details: foliage application, 320 g/ha, 3 weeks after application
Excerpt: as §2, §3

velvetleaf = assay: Test Example 5: herbicidal effect by foliage application, plastic box (Table 20, symbol M); assay type: in vivo, velvetleaf (Abutilon theophrasti); details: foliage application, 320 g/ha, 3 weeks after application
Excerpt: as §2, §3

lambsquarters = assay: Test Example 5: herbicidal effect by foliage application, plastic box (Table 20, symbol O); assay type: in vivo, lambsquarters (Chenopodium album); details: foliage application, 320 g/ha, 3 weeks after application
Excerpt: as §2, §3

persian speedwell = assay: Test Example 5: herbicidal effect by foliage application, plastic box (Table 20, symbol R); assay type: in vivo, Persian speedwell (Veronica persica); details: foliage application, 320 g/ha, 3 weeks after application
Excerpt: as §2, §3

SMILES | herbicidal effect on H (barnyard grass), rating 0-5 (barnyard grass [1]) | herbicidal effect on D (Chinese sprangletop), rating 0-5 (Chinese sprangletop) | herbicidal effect on E (rice flat sedge), rating 0-5 (rice flat sedge) | effect on southern crabgrass (F) (southern crabgrass) | effect on green foxtail (G) (green foxtail) | effect on barnyard grass (H) (barnyard grass [2]) | effect on wild oat (I) (wild oat) | effect on blackgrass (J) (blackgrass) | effect on Italian ryegrass (K) (Italian ryegrass) | effect on windgrass (L) (windgrass) | effect on velvetleaf (M) (velvetleaf) | effect on lambsquarters (O) (lambsquarters) | effect on persian speedwell (R) (persian speedwell)
COc1nn(C)c(=O)c(-c2c(-c3cc4ccccc4o3)sc3ccccc23)c1O [1-194] | 0 (Herbicidal rate of 5% or less (almost no effect)) | 0 (Herbicidal rate of 5% or less (almost no effect)) | 2 (Herbicidal rate of 20% or more and less than 40%) | 0 (Herbicidal rate of 5% or less (almost no effect)) | 0 (Herbicidal rate of 5% or less (almost no effect)) | 0 (Herbicidal rate of 5% or less (almost no effect)) | 1 (Herbicidal rate of 5% or more and less than 20%) | 0 (Herbicidal rate of 5% or less (almost no effect)) | 3 (Herbicidal rate of 40% or more and less than 70%) | 0 (Herbicidal rate of 5% or less (almost no effect)) | 0 (Herbicidal rate of 5% or less (almost no effect)) | 0 (Herbicidal rate of 5% or less (almost no effect)) | 0 (Herbicidal rate of 5% or less (almost no effect))
CCCC(=O)Oc1c(OC)nn(C)c(=O)c1-c1c(-c2cc3ccccc3o2)sc2ccccc12 [1-195] | – | – | – | 0 (Herbicidal rate of 5% or less (almost no effect)) | 0 (Herbicidal rate of 5% or less (almost no effect)) | 0 (Herbicidal rate of 5% or less (almost no effect)) | 0 (Herbicidal rate of 5% or less (almost no effect)) | 0 (Herbicidal rate of 5% or less (almost no effect)) | 0 (Herbicidal rate of 5% or less (almost no effect)) | 0 (Herbicidal rate of 5% or less (almost no effect)) | 0 (Herbicidal rate of 5% or less (almost no effect)) | 0 (Herbicidal rate of 5% or less (almost no effect)) | 0 (Herbicidal rate of 5% or less (almost no effect))
Cc1nn(C)c(=O)c(-c2c(-c3ccc(CO)cc3)sc3ccccc23)c1O [1-238] | 4 (Herbicidal rate of 70% or more and less than 90%) | 4 (Herbicidal rate of 70% or more and less than 90%) | 4 (Herbicidal rate of 70% or more and less than 90%) | 3 (Herbicidal rate of 40% or more and less than 70%) | 4 (Herbicidal rate of 70% or more and less than 90%) | 3 (Herbicidal rate of 40% or more and less than 70%) | 0 (Herbicidal rate of 5% or less (almost no effect)) | 0 (Herbicidal rate of 5% or less (almost no effect)) | 3 (Herbicidal rate of 40% or more and less than 70%) | 0 (Herbicidal rate of 5% or less (almost no effect)) | 5 (Herbicidal rate of 90% or more (almost completely withered)) | 4 (Herbicidal rate of 70% or more and less than 90%) | 5 (Herbicidal rate of 90% or more (almost completely withered))
